Laboratory results from patent US20250134869A1, “Pyrrolo[2,3-d]pyrimidinyl, Pyrrolo[2,3-b]pyrazinyl and Pyrrolo[2,3-d]pyridinyl Acryla-mides” (Pfizer Inc, priority 2021, published 2025).
pIC50: −log10 of the molar value. Read-outs that look alike come from different tables or passages of the source.

Target: JAK3 enzyme (Homo sapiens (Human), UniProt P52333)
Experiment: JAK Caliper Enzyme Assay at 4 μM or 1 mM ATP
Format: biochemical
Protocol: JAK Caliper Enzyme Assay at […] or 1 mM ATP
Test article was solubilized in dimethyl sulfoxide (DMSO) to a stock concentration of 30 mM. An 11-point half log dilution series was created in DMSO with a top concentration of 600 μM. […] The compound plates were diluted 1 to 60 resulting in a top final assay compound concentration of 10 μM and a 2% DMSO concentration.
Test article and assay controls were added to a 384-well plate. Reaction mixtures contained 20 mM HEPES, pH 7.4, 10 mM magnesium chloride, 0.01% bovine serum albumin (BSA), 0.0005% Tween […] or 1 mM ATP and […] peptide substrate. […] The assays were initiated by the addition 1 nM JAK3 enzyme and were incubated at room temperature 75 minutes for JAK3. Enzyme concentrations and incubation times were optimized for each new enzyme preps and were modified slightly over time to ensure 20%-30% phosphorylation. The assays were stopped with a final concentration of 10 mM EDTA, 0.1% Coating Reagent and 100 mM HEPES, pH=7.4. The assay plates were placed on a Caliper Life Science Lab Chip 3000 (LC3000) instrument, and each well was sampled using appropriate separation conditions to measure the unphosphorylated and phosphorylated peptide.

[1] = read-out: JAK3 (4 μM ATP) IC50, 4 μM ATP
[2] = read-out: JAK3 (1 mM ATP) IC50, 1 mM ATP

Chain of JAK3 enzyme (P52333 whole entry, species assumed): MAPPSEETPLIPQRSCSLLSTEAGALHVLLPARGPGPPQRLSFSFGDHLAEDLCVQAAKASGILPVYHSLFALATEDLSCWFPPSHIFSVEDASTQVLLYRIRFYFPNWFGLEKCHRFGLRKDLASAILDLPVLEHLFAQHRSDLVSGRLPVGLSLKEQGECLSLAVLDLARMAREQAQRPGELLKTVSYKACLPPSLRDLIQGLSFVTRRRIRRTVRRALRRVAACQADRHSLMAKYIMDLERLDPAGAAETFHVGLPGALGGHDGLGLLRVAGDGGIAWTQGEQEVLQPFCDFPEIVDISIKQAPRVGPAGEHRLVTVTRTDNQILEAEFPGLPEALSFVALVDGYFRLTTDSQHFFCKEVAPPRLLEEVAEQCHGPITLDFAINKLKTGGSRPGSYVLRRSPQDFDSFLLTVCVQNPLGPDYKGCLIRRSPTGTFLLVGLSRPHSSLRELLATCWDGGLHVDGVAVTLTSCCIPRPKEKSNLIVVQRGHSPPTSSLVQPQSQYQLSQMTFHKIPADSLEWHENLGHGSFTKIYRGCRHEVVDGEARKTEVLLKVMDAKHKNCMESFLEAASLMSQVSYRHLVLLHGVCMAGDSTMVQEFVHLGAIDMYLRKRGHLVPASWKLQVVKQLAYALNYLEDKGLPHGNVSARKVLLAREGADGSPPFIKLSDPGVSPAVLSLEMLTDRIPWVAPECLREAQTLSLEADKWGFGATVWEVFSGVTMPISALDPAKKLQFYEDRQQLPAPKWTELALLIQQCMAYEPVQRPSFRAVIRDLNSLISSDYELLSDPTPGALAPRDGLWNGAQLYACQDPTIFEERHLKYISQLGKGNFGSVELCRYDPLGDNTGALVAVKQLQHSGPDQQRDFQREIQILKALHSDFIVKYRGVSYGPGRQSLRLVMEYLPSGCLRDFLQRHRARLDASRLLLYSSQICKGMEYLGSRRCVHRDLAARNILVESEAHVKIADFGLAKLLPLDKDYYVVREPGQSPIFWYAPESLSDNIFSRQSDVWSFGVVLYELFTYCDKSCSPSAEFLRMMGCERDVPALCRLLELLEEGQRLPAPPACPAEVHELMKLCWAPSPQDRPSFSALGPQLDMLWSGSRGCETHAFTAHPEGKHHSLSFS

| Compound | pIC50 [1] | pIC50 [2] |
| --- | --- | --- |
| C=CC(=O)N1CCC[C@@H](Nc2ncnc3[nH]cc(C(=O)N4CCCC4)c23)C1 [Example 146, 1-[(3R)-3-{[5-(pyrrolidin-1-ylcarbonyl)-7H-pyrrolo[2,3-d]pyrimidin-4-yl]amino}pipendin-1-yl]prop-2-en-1-one] | 6.02 |  |
| C=CC(=O)N1C[C@@H](F)C[C@@H](Nc2ncnc3[nH]ccc23)C1 [Example 15, 1-((3R,5S)-3-((7H-Pyrrolo[2,3-d]pyrimidin-4-yl)amino)-5-fluoropiperidin-1-yl)prop-2-en-1-one] | 9.05 | 7.08 |
| C=CC(=O)N1CC[C@@]2(C)CCN(c3ncnc4[nH]ccc34)[C@H]2C1 [Example 122, 1-((3aR,7aR)-3a-Methyl-1-(7H-pyrrolo[2,3-d]pyrimidin-4-yl)hexahydro-1H-pyrrolo[2,3-c]pyridin-6 (2H)-yl)prop-2-en-1-one] | 7.12 | < 5.00 |
| O=C(/C=C/CF)N1CC[C@@H]2CCN(c3ncnc4[nH]ccc34)[C@@H]2C1 [Example 87, (2E)-4-fluoro-1-[(3aS,7aS)-1-(7H-pyrrolo[2,3-d]pyrimidin-4-yl)octahydro-6H-pyrrolo[2,3-c]pyrdin-6-yl]but-2-en-1-one] | 6.86 | < 5.00 |
| C=CC(=O)N1C[C@H](Nc2ncnc3[nH]ccc23)C[C@H](N(C)C)C1 [Example 57, 1-((3R,5S)-3-((7H-Pyrrolo[2,3-d]pyrimidin-4-yl)amino)-5-(dimethylamino)piperidin-1-yl)prop-2-en-1-one] | 8.85 | 6.44 |
| C=CC(=O)N1CCCC(Nc2ncnc3[nH]ccc23)C1 (stereo not drawn) [Example 103, 1-[3-(7H-pyrrolo[2,3-d]pyrimidin-4-ylamino)piperidin-1-yl]prop-2-en-1-one] | 8.33 |  |
| C=C(C)C(=O)N1CCC[C@@H](Nc2ncnc3[nH]cc(CCO)c23)C1 [Example 152, 1-[(3R)-3-{[5-(2-Hydroxyethyl)-7H-pyrrolo[2,3-d]pyrimidin-4-yl]amino}piperidin-1-yl]-2-methylprop-2-en-1-one] | 5.37 |  |
| C=CC(=O)N1CC[C@H]2CN(c3ncnc4[nH]ccc34)[C@H]2C1 [Example 134, 1-[(1R,6S)-8-(7H-Pyrrolo[2,3-d]pyrimidin-4-yl)-3,8-diazabicyclo[4.2.0]oct-3-yl]prop-2-en-1-one] | 7.15 |  |
| C=CC(=O)N1[C@@H]2CC[C@H]1CN(c1cnc3[nH]cc(C(=O)NC(C)C)c3n1)C2 [Example 301, 2-[(1R,5S)-8-acryloyl-3,8-diazabicyclo[3.2.1]oct-3-yl]-N-(propan-2-yl)-5H-pyrrolo[2,3-b]pyrazine-7-carboxamide] | 9.22 | 7.05 |
| C=CC(=O)N1CCC[C@@H](Nc2ncnc3[nH]cc(CCOC)c23)C1 [Example 46, 1-[(3R)-3-{[5-(2-methoxyethyl)-7H-pyrrolo[2,3-d]pyrimidin-4-yl]amino}piperidin-1-yl]prop-2-en-1-one] | 8.55 | 6.52 |
| C=C(C(=O)N1CC[C@@H]2CCN(c3ncnc4[nH]ccc34)[C@@H]2C1)C(F)(F)F [Example 41, 1-((3aS,7aS)-1-(7H-Pyrrolo[2,3-d]pyrimidin-4-yl)hexahydro-1H-pyrrolo[2,3-c]pyridin-6 (2H)-yl)-2-(trifluoromethyl)prop-2-en-1-one] | 9.00 | 7.03 |
| C=CC(=O)N1CCC[C@@H](Nc2ncnc3[nH]cc(/C=C/c4ccoc4)c23)C1 [Example 38, 1-[(3R)-3-({5-[(E)-2-(furan-3-yl)ethenyl]-7H-pyrrolo[2,3-d]pyrimidin-4-yl}amino)piperidin-1-yl]prop-2-en-1-one] | 5.49 |  |
| N#CCCc1c[nH]c2ncnc(N[C@@H]3CCCN(C(=O)/C=C/CO)C3)c12 [Example 158, 3-[4-({(3R)-1-[(2E)-4-Hydroxybut-2-enoyl]piperidin-3-yl}amino)-7H-pyrrolo[2,3-d]pyrimidin-5-yl]propanenitrile] | < 5.00 |  |
| C=CC(=O)NC1CN(c2cnc3[nH]ccc3n2)C1 [Example 192, N-[1-(5H-pyrrolo[2,3-b]pyrazin-2-yl)azetidin-3-yl]prop-2-enamide] | 6.57 |  |

Results, then the compound that gave them:

| pIC50 [1] | pIC50 [2] | Compound |
| --- | --- | --- |
| 9.52 | 8.06 | C=CC(=O)N1CC(Nc2cnc3[nH]cc(C(=O)NC(C)C)c3n2)C1 [Example 188, 2-[(1-acryloylazetidin-3-yl)amino]-N-(propan-2-yl)-5H-pyrrolo[2,3-b]pyrazine-7-carboxamide] |
| 9.70 | 8.06 | C=CC(=O)N1CCC(Nc2cnc3[nH]cc(C(=O)N[C@H](CC)CC#N)c3n2)CC1 [Example 263, 2-[(1-acryloylpiperidin-4-yl)amino]-N-[(2R)-1-cyanobutan-2-yl]-5H-pyrrolo[2,3-b]pyrazine-7-carboxamide] |
| 8.80 | 6.65 | C=CC(=O)N1C[C@@H](C)N(c2cnc3[nH]cc(C(=O)NC(C)C)c3n2)[C@@H](C)C1 [Example 328, 2-[(2R,6S)-4-acryloyl-2,6-dimethylpiperazin-1-yl]-N-(propan-2-yl)-5H-pyrrolo[2,3-b]pyrazine-7-carboxamide] |
| 8.96 | 6.90 | C=CC(=O)N1CCC(Oc2cnc3[nH]cc(-c4ccnc(F)c4)c3n2)CC1 [Example 222, 1-(4-{[7-(2-fluoropyridin-4-yl)-5H-pyrrolo[2,3-b]pyrazin-2-yl]oxy}piperidin-1-yl)prop-2-en-1-one] |
| 8.18 | 6.09 | C=CC(=O)N1CCN(c2cnc3[nH]cc(C(=O)NC(C)C)c3n2)[C@H](C2CC2)C1 [Example 309, 2-[(2R)-4-acryloyl-2-cyclopropylpiperazin-1-yl]-N-(propan-2-yl)-5H-pyrrolo[2,3-b]pyrazine-7-carboxamide] |
| 6.84 |  | C=CC(=O)N1CCC[C@@H](Nc2ncnc3[nH]cc(C(=O)NCCO)c23)C1 [Example 143, 4-{[(3R)-1-acryloylpiperidin-3-yl]amino}-N-(2-hydroxyethyl)-7H-pyrrolo[2,3-d]pyrimidine-5-carboxamide] |
| 8.72 | 6.75 | C=CC(=O)N1CCC(Nc2cnc3[nH]cc(C(=O)N4CCC4)c3n2)CC1 [Example 284, 1-(4-{[7-(azetidin-1-ylcarbonyl)-5H-pyrrolo[2,3-b]pyrazin-2-yl]amino}piperidin-1-yl)prop-2-en-1-one] |
| 9.40 | 7.46 | C=CC(=O)N1CCN(c2cnc3[nH]cc(C(=O)NC(C)C)c3n2)CC1 [Example 174, 2-(4-acryloylpiperazin-1-yl)-N-(propan-2-yl)-5H-pyrrolo[2,3-b]pyrazine-7-carboxamide] |
| 9.15 | 7.25 | C=CC(=O)N1CCN(c2cnc3[nH]cc(C(=O)NC(C)C)c3n2)C[C@@H]1CC [Example 299, 2-[(3S)-4-acryloyl-3-ethylpiperazin-1-yl]-N-(propan-2-yl)-5H-pyrrolo[2,3-b]pyrazine-7-carboxamide] |
| 9.52 | 8.18 | C=CC(=O)N1CCC(Nc2cnc3[nH]cc(C(=O)N[C@@H](C)COC)c3n2)CC1 [Example 277, 2-[(1-acryloylpiperidin-4-yl)amino]-N-[(2S)-1-methoxypropan-2-yl]-5H-pyrrolo[2,3-b]pyrazine-7-carboxamide] |
| 7.92 | 6.05 | C=CC(=O)N1CCN(c2cnc3[nH]cc(C(=O)NC(C)C)c3n2)[C@@H](C(C)C)C1 [Example 323, 2-[(2S)-4-acryloyl-2-(propan-2-yl)piperazin-1-yl]-N-(propan-2-yl)-5H-pyrrolo[2,3-b]pyrazine-7-carboxamide] |
